1 compound from patent US20240158418A1 (C4 Therapeutics, Inc., priority 2021, published 2024) can be followed below.

A word on the ΔTm: it is the shift of the melting midpoint relative to a reference.

Assay [1] deals with NCI-H1975 L858R-T790M NSCLC xenograft tumors. The assay is described as follows: NCI-H1975 NSCLC xenograft efficacy. It is filed as in vivo, female BALB/c nude mice. How it is done:
For the NCI-H1975 cells, the xenograft study was conducted in female BALB/c nude mice bearing NCI-H1975 NSCLC tumors. Female nude mice were inoculated subcutaneously in the right flank with 5×10^6 tumors cells in 0.1 mL of PBS. Tumor volume was measured twice weekly in two dimensions using calipers, and volume (mm^3) was calculated using the formula: V=0.5 a×b^2 where a and b are the long and short diameters of the tumor in mm, respectively.
Body weight and MTV were measured on a 2× weekly schedule. Statistical analysis was performed using a one-way ANOVA. Data are expressed as MTV±SEM.

Assay [2] addresses T1, Sal-like protein 4 (SALL4) (Homo sapiens, UniProt Q9UJQ4).
T1 construct: Endogenous expression of SALL4 in KELLY cells was determined by addition of C-terminal HiBiT tag; host or cells: KELLY (CRISPR-Cas9 HiBiT knock-in)
The assay is described as follows: SALL4 degradation, HiBiT-tagged SALL4 in KELLY cells. It is filed as cell-based. The note with it: 6 hours, up to 10 μM. How it is done:
Specific studies were carried out to assess the ability of Compound 1 to degrade Sal-like protein 4 (SALL4), a protein implicated in the teratogenicity induced by the IMiD®s class of IKZF1/IKZF3 degraders including lenalidomide (Matyskiela et al., Crystal structure of the SALL4-pomalidomide-cereblon-DDB1 complex, Nature Structural and Molecular Biology, (2020) 27, 319-322). Endogenous expression of SALL4 in KELLY cells was determined by addition of C-terminal HiBiT tag to the KELLY cell line (DSMZ ACC355) using CRISPR-Cas9. Briefly, test compound was added to 384-well plates at a top concentration of 1 μM with 11 points, half log titration in duplicates. KELLY cells expressing HiBiT-tagged SALL4 were seeded into the 384-well plates in RPMI medium containing 10% FBS and 2 mM pyruvate at a cell density of 6000 cells per well. Cells treated in the absence of the test compound were the negative control and wells containing media only were the positive control. Following compound treatment, cells were incubated at 37° C. with 5% CO2 for 6 hr. HiBiT signal was determined using Nano-Glo™ HiBiT Lytic Assay System (Promega, N3050) and luminescence was acquired on EnVision™ Multilabel Reader (PerkinElmer, Santa Clara, CA, USA). % SALL4 remaining was determined by normalizing the signal with positive and negative controls on the same microtiter plate. Data in FIG. 7 are expressed as the mean±SD. […]

For assay [3], the target named is T2, G1 to S Phase Transition 1 (GSPT1) (Homo sapiens, UniProt P15170).
T2 construct: Endogenous expression of GSPT1 in 293T cells was determined by addition of N-terminal HiBiT tag; host or cells: 293T (CRISPR-Cas9 HiBiT knock-in)
T2 sequence (Q96SW2 whole entry partner): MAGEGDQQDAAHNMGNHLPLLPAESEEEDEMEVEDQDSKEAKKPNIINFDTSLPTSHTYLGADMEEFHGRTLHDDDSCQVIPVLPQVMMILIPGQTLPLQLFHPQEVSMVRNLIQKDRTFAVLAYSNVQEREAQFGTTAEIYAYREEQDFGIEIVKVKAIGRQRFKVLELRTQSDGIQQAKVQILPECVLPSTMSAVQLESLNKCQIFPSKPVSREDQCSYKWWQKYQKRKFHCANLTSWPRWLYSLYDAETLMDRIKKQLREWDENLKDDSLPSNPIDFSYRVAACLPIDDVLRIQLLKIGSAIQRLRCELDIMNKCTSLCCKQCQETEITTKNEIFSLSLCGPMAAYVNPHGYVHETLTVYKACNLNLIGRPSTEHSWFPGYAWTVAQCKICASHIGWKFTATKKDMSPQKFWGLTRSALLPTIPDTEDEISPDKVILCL
T2 sequence (Q16531 whole entry partner): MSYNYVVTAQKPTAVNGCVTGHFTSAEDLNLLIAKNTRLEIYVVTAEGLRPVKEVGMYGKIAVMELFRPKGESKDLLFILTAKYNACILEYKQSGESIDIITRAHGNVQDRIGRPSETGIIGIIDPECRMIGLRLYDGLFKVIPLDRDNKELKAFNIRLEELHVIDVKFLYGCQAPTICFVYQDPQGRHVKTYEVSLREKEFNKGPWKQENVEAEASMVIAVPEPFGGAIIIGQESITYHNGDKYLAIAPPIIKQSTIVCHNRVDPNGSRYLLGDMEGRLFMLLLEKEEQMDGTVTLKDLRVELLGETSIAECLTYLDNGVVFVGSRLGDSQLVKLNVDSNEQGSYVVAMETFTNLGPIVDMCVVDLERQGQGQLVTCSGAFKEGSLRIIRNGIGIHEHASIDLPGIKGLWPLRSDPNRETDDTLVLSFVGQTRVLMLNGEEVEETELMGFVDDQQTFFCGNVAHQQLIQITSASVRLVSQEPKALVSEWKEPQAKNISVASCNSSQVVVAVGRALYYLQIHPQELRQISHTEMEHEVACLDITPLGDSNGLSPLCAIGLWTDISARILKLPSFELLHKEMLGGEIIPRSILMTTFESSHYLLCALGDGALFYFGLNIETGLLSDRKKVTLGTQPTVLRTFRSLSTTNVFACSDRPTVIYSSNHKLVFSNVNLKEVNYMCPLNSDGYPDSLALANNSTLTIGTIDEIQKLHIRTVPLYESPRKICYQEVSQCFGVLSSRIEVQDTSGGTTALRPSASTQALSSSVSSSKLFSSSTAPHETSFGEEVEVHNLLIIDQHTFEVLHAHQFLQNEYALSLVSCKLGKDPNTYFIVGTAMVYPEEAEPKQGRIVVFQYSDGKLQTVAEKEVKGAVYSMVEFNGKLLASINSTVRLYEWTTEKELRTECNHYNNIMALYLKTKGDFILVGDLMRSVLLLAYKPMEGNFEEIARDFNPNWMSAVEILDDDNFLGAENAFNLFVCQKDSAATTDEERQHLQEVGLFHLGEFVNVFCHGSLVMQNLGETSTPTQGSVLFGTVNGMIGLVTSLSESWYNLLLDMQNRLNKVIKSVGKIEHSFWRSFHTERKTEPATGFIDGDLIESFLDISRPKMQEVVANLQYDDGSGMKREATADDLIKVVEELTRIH
T2 sequence (P15170 whole entry): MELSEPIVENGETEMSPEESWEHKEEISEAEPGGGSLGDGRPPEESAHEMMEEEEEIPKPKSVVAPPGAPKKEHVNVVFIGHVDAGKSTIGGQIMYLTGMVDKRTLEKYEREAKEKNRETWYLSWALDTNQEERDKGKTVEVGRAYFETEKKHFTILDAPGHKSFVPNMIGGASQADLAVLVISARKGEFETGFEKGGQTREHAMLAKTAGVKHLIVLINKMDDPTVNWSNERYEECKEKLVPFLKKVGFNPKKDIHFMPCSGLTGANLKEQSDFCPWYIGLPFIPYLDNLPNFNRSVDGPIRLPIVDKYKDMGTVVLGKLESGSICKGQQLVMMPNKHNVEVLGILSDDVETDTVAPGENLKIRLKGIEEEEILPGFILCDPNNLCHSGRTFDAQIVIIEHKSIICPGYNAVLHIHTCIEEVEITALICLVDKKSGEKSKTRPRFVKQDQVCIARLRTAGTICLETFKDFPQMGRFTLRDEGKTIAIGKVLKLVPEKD
The assay is described as follows: GSPT1 degradation, HiBiT-tagged GSPT1 in 293T cells. It is filed as cell-based. The conditions noted are these: 6 hours, up to 10 WV. As for the experimental part: Endogenous expression of GSPT1 in 293T cells was determined by addition of N-terminal HiBiT tag to the 293T cell line (ATCC CRL-3216) using CRISPR-Cas9. Briefly, test compound was added to 384-well plates at a top concentration of 10 μM with 11 points, half log titration in duplicates. 293T cells expressing HiBiT-tagged GSPT1 were seeded into the 384-well plates in DMEM medium containing 10% FBS at a cell density of 6000 cells per well. Cells treated in the absence of the test compound were the negative control and wells containing media only were the positive control. Following compound treatment, cells were incubated at 37° C. with 5% CO2 for 6 hr. HiBiT signal was determined using Nano-Glo™ HiBiT Lytic Assay System (Promega, N3050) and luminescence was acquired on EnVision™ Multilabel Reader (PerkinElmer, Santa Clara, CA, USA). % GSPT1 remaining was determined by normalizing the signal with positive and negative controls on the same microtiter plate. Data in FIG. 8 are expressed as the mean±SD. Curve fit and IC50 determination was performed by 4 parametric regression analysis.

For assay [4], the target named is T3, EGFR L858R (Homo sapiens, UniProt P00533, L858R). Description: Western blot NCI-H3255, Compound 1 with or without osimertinib: EGFR-L858R. It is filed as cell-based. The note with it: NCI-H3255, six hours, 0-1,500 nM, presence and absence of 1,500 nM osimertinib. From the text:
The compound bearing solutions were formulated to achieve a 0.1% final concentration of DMSO. […] Antibodies used in western blot were purchased from the following vendors: EGFR-L858R specific antibody (CST 3197), pY1068 EGFR (CST 2234), pERK (CST 4370), ERK (CST 4695), vinculin (Millipore 05-386).
For orientation: In western blotting, separated proteins are transferred to a membrane and probed.

The target of assay [5] is T3, EGFR L858R. The assay is described as follows: Differential scanning fluorimetry (DSF). It is filed as binding. The note with it: EGFR (L858R) 10 μM, compound 100 μM, vs apo protein +DMSO TM = 45.4° C. For orientation: In DSF a fluorescence change marks the thermal transition of the protein.
Protocol: The protein was incubated at 10 μM in buffer (100 mM HEPES pH 7.5 and 150 mM NaCl) with DMSO to determine the stability of the protein alone. In addition, the protein (10 μM) was incubated with each compound (100 μM) individually, or in combination, for 30 min on ice. Protein stability was measured in the presence of 4×SYPRO™ Orange dye (Thermo Fisher) using a ViiA7 Real-Time PCR System (Thermo Fisher) adapted for thermal melts. Reactions of 20 μL were run in quadruplicate using Microamp Optical 384-well reaction plates (Applied Biosystems). Temperature was increased by 0.5° C. intervals from 25° C. to 99° C. and fluorescence intensity was measured. In-house curve fitting analysis software was used to calculate the thermal melting point (TM) of the protein in each reaction.
Assay [6] has as its system intracranial NCI-H1975-luciferase expressing tumors. Description: NCI-H1975-luc intracranial tumor model (intracarotid artery injection): BLI, body weight, survival. It is filed as in vivo, female BALB/c nude mice. The conditions noted are these: intracranial model with intracarotid implantation, oral dosing. How it is done: Female BALB/c nude mice were inoculated by intracarotid injection with NCI-H1975-luc cells (1×10^5 in 100 μL PBS) for tumor development. Tumor growth was monitored using imaging analysis. Tumor-bearing mice were weighed and injected intraperitoneally with luciferin at a dose of 150 mg/kg and anesthetized with a mixture gas of oxygen and isoflurane. 10 minutes post luciferin injection, mice were imaged using IVIS Lumina III machine and total bioluminescence signal (BLI, photons/s) was measured in a region of interest (ROI). BLI from ROI were quantified and used as an indicator of tumor burden. Twenty days post tumor cell inoculation mice were randomized into groups of 6 with a mean BLI of 1.08×10^6 photons/s. Compound 1 was dosed orally (PO) twice a day at 50 mg/kg and was formulated in 20% PEG400+80% (25% SBECD, “sulfobutylether-β-cyclodextrin”) in double distilled H2Om which was also used as the vehicle control. Body weight and MTV were measured on a 2× weekly schedule. Survival data was also measured and is represented as median survival time±SEM.

T1 sequence (Q96SW2 whole entry partner): as the sequence (Q96SW2 whole entry partner) above
T1 sequence (Q16531 whole entry partner): as the sequence (Q16531 whole entry partner) above
T1 sequence (Q9UJQ4 whole entry): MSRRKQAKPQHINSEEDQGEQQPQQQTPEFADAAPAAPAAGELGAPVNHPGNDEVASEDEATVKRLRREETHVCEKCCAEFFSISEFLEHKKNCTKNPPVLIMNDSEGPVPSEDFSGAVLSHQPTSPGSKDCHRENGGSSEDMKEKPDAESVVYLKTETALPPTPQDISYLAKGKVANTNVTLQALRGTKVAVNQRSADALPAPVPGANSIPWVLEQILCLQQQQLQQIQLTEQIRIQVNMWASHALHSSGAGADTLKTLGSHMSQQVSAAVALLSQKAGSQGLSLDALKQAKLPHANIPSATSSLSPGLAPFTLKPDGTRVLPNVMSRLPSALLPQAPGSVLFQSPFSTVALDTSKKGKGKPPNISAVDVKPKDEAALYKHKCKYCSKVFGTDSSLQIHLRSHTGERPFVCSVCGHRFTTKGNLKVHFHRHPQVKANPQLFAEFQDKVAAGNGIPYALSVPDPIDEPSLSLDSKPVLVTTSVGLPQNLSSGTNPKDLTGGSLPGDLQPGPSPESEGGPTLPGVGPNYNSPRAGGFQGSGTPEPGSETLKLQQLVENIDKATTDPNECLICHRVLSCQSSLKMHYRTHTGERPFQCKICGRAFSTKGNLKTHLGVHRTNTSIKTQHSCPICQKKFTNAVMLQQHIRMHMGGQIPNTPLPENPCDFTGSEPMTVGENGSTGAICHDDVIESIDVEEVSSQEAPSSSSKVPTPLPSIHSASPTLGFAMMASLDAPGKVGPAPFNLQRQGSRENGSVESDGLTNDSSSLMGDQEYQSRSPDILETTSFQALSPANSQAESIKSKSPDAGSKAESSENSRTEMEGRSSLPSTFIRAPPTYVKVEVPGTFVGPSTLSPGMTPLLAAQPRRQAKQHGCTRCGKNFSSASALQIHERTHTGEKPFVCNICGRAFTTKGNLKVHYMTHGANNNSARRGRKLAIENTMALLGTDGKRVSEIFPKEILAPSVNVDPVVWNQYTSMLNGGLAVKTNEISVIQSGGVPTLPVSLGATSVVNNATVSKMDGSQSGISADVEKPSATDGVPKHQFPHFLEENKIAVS

As to `O=C1CC[C@H](Nc2ccc(N3CCC(O)(CC(=O)N4CC5(C4)CN(c4ccc(-c6cc(F)c7c(c6)C(=O)N(C(C(=O)Nc6nccs6)c6ncn8c6CCC8)C7)cc4)C5)CC3)c(F)c2)C(=O)N1` (stereo partly drawn) [Compound 1, 2-(6,7-dihydro-5H-pyrrolo[1,2-c]imidazol-1-yl)-2-[6-[4-[2-[2-[1-[4-[[(3S)-2,6-dioxo-3-piperidyl]amino]-2-fluoro-phenyl]-4-hydroxy-4-piperidyl]acetyl]-2,6-diazaspiro[3.3]heptan-6-yl]phenyl]-4-fluoro-1-oxo-isoindolin-2-yl]-N-thiazol-2-yl-acetamide], in assay [1] (20, 50 and 100 mg/kg/day PO BID, 14 days), the “efficacy on NCI-H1975 tumor volume” value is “reduced tumor volume”. Moreover, the tumor regression entry in assay [1] (NCI-H1975 mouse xenograft model, oral) is “up to 90%”. The “SALL4 degradation (% SALL4 remaining)” value in assay [2] is “no effect”. The “GSPT1 degradation (% GSPT1 remaining)” value in assay [3] is “no significant effect”. Moreover, the “EGFR-L858R degradation (western blot)” value in assay [4] is listed as “efficiently degraded”. For the same compound, the ΔTm at 100 µM in assay [5] came to 5.8 °C. Further, the “efficacy on NCI-H1975-luc BLI (tumor burden)” value in assay [6] is listed as “tumor regression”.
